{"source": "paper PMC6161288", "about": "“Bioavailability of Eurycomanone in Its Pure Form and in a Standardised Eurycoma longifolia Water Extract” (Pharmaceutics, 2018)", "key": {"[1]": {"assay": "Plasma protein binding (rapid equilibrium dialysis), monkey", "assay_type": "in vitro ADME", "conditions": "pH 7.4, 37 °C, read-out: percentage bound to plasma protein (converted)", "protocol": "(§1) The ability of eurycomanone to bind plasma protein was analysed in five types of plasma (mice, rat, dog, monkey, and human). Each type of plasma was spiked with eurycomanone (1 mM) to make the 10 µM test concentration of eurycomanone in the plasma. Equilibrium dialysis buffer (500 µL) at pH 7.4 was added to the right chamber in rapid equilibrium dialysis (RED), while the spiked plasma (300 µL) was added to the left chamber. The Teflon base plate was covered with aluminium foil and left on the shaking incubator at 37 °C for 4 h. The matrix was balanced by mixing 100 µL of the equilibrium buffer with the spiked plasma from the left chamber in RED before adding the stop solution (350 µL) to precipitate out the protein. The supernatant (10,000 rpm, 10 min, 4 °C) was collected and analysed using LC-MS/MS. The standards (propranolol, warfarin, and acebutalol) were analysed in duplicates."}, "[2]": {"assay": "Parallel artificial membrane permeability assay (PAMPA)", "assay_type": "in vitro ADME", "conditions": "pH 7.4, 18 h, room temperature, read-out: permeation through artificial membrane (PAMPA)", "protocol": "Eurycomanone was added to Pion buffer (Pion Inc., Billerica, MA, USA) pH 7.4 to make a 10 µM working solution. Five microlitres of the lipid mix was applied on the membrane and allowed to dry for 10 min. The working solution (200 µL) was added to the donor plate and Pion buffer (200 µL) were added to the receiver plate. The plate was kept in a moist chamber and left for 18 h at room temperature. The solution from both the donor and receiver plate and the working solution was analysed using LC-MS/MS. This test was carried out in triplicates using propranolol, atenolol, and carbamazepine as standards. The test concentration for eurycomanone is […]."}, "Plasma stability, human": {"assay": "Plasma stability, human", "assay_type": "in vitro ADME", "conditions": "5 µM, 37 °C, up to 4 h", "protocol": "(§2) The plasma stability was estimated by preparing 5 µM of eurycomanone in 600 µL plasma in triplicates. The plasma stability of eurycomanone was determined in five types of plasma (mice, rat, dog, monkey, and human). The reaction was kept at 37 °C and ACN (100 µL) was added at timepoints 0, 30 min, and 1, 2, and 4 h to the reaction mixture (100 µL). The supernatant (10,000 rpm, 10 min, 4 °C) was collected and analysed by LC-MS/MS. The standards (propantheline bromide and enalapril) were analysed in triplicates."}, "[3]": {"assay": "Lipophilicity, shake flask method with octanol and buffer (pH 7.4)", "assay_type": "physicochemical", "conditions": "pH 7.4, octanol/buffer shake flask; read-out: distribution coefficient log D", "protocol": "The lipophilicity of eurycomanone was estimated using the shake flask method with octanol and buffer (pH 7.4). Eurycomanone (5 µL) at 5 mM concentration is added to octanol (495 µL) and DMSO (495 µL) and also into the aqueous and octanol phase in a 1:1 ratio ([…] of octanol phase and 247.5 µL of aqueous phase). The octanol and aqueous phases were prepared using a saturation process, where equal amounts of D-PBS (pH 7.4) and octanol were saturated (300 rpm, room temperature) for 24 h before being separated and kept at room temperature. The prepared mixtures were vortexed and kept on the shaker (300 rpm) at room temperature for 16 h. The mixtures were allowed to stand for 30 min, and 200 µL of solution was transferred and sent for HPLC analysis."}, "[4]": {"assay": "Caco-2 cell permeability assay", "assay_type": "in vitro ADME", "conditions": "human", "protocol": "The Caco-2 assay was carried out after seeding the cells onto the membrane to form a confluent monolayer in 21 days. The media is removed from apical (A) and basolateral (B) chambers and the membrane is washed with HBSS buffer. Eurycomanone (10 µM, 200 µL) was added to the A compartment (which represents the intestinal lumen), and buffer (300 µL) was added to the B compartment (representing the blood), and vice versa. The plate was kept in a shaking incubator (37 °C) for 1 h. The amount of eurycomanone that had permeated across the cells was measured by LC-MS/MS, and the apparent permeability (Papp) values and efflux ratio were calculated. The expression of P-glycoprotein (P-gp) by differentiated Caco-2 cells was confirmed by measuring the Papp value and efflux ratio of vinblastine with and without the presence of a competing P-gp substrate, cyclosporine A. Eurycomanone was also measured with the presence of cyclosporine A to investigate whether eurycomanone may be transported via P-gp transporters."}, "[5]": {"assay": "Liver microsome metabolic stability, rat", "assay_type": "in vitro ADME", "conditions": "rat liver microsomes", "protocol": "(§3) The liver microsome stability assay of eurycomanone was estimated using phase I and phase II enzymes in five types of microsomes (mice, rat, dog, monkey, and human). Eurycomanone at 1 mM (20 µL), microsomes at 0.3 mg/mL (20 µL), and 10 mg/mL of alamethicin in 1:1 DMSO and methanol (20 µL) were preincubated at 37 °C for 10 min. The cofactor, 5 mM UDPGA (20 µL), and 1 mM NADPH (20 µL) were added to make the final assay volume of 100 µL. At timepoints 0, 15, 30, 45, 60, and 90 min, […] of the reaction mixture is taken out and added to the stop solution. The supernatants (10,000 rpm, 10 min, 4 °C) were collected and analysed using LC-MS/MS. The standards used for mice and rat liver microsomes were propranolol and dasatinib. The standards used with the dog and monkey liver microsomes were propranolol and midazolam, while the standards used with the human liver microsomes were propranolol and terfinadine."}, "Plasma stability, dog": {"assay": "Plasma stability, dog", "assay_type": "in vitro ADME", "conditions": "5 µM, 37 °C, up to 4 h", "protocol": "as §2"}, "plasma protein": {"tested_on": "plasma protein", "assay": "Plasma protein binding (rapid equilibrium dialysis), rat", "assay_type": "in vitro ADME", "conditions": "rat plasma, 10 µM, 37 °C, 4 h", "protocol": "as §1"}, "[6]": {"assay": "Plasma protein binding (rapid equilibrium dialysis), rat", "assay_type": "in vitro ADME", "conditions": "rat, plasma, pH 7.4, rat plasma", "protocol": "as §1"}, "[7]": {"assay": "Plasma protein binding (rapid equilibrium dialysis), mice", "assay_type": "in vitro ADME", "conditions": "mouse, pH 7.4, 37 °C, read-out: percentage bound to plasma protein (converted)", "protocol": "as §1"}, "[8]": {"assay": "Liver microsome metabolic stability, human", "assay_type": "in vitro ADME", "conditions": "human liver microsomes", "protocol": "as §3"}, "[9]": {"conditions": "read-out: Intrinsic clearance (Clint)"}}, "data": [{"smiles": "C=C1[C@@H](O)[C@]2(O)OC[C@]34[C@H]2[C@@]2(C)[C@H](O)C(=O)C=C(C)[C@@H]2C[C@H]3OC(=O)[C@H](O)[C@@]14O", "note": "[Eurycomanone]", "values": [{"measurement": "fraction unbound at 4 h, 10 µM", "setting": "[1]", "value": 0.646}, {"measurement": "Papp at 18 h, 25 µM", "setting": "[2]", "value": 0.78, "unit": "×10⁻⁶ cm/s"}, {"measurement": "plasma stability", "setting": "Plasma stability, human", "value": "highly stable"}, {"measurement": "logD at 16 h", "setting": "[3]", "value": -0.35}, {"measurement": "Papp at 1 h, 10 µM", "setting": "[4]; Caco-2, Caco-2, A to B", "value": 0.45, "unit": "×10⁻⁶ cm/s"}, {"measurement": "Papp at 1 h, 10 µM", "setting": "[4]; Caco-2, Caco-2, B to A", "value": 0.73, "unit": "×10⁻⁶ cm/s"}, {"measurement": "efflux ratio at 1 h, 10 µM", "setting": "[4]; Caco-2, Caco-2, read-out: Efflux Ratio", "value": "< 2"}, {"measurement": "Half-life (t1/2)", "setting": "[5]", "value": ">1.5", "unit": "h"}, {"measurement": "half-life at 200 µM", "setting": "[5]", "value": "> 1.5", "unit": "h"}, {"measurement": "CLint scaled at 200 µM", "setting": "[5]; [9]", "value": 83.2, "unit": "mL/min/kg"}, {"measurement": "plasma stability", "setting": "Plasma stability, dog", "value": "highly stable"}, {"measurement": "percentage bound to plasma protein", "setting": "plasma protein", "value": 30, "unit": "%"}, {"measurement": "fraction unbound at 4 h, 10 µM", "setting": "[6]; 10 µM, 37 °C, 4 h, read-out: percentage bound to plasma protein (converted)", "value": 0.699}, {"measurement": "fraction unbound at 4 h, 10 µM", "setting": "[6]; read-out: unbound fraction", "value": 0.7}, {"measurement": "fraction unbound at 4 h, 10 µM", "setting": "[7]", "value": 0.784}, {"measurement": "Half-life (t1/2)", "setting": "[8]", "value": ">1.5", "unit": "h"}, {"measurement": "half-life at 200 µM", "setting": "[8]", "value": "> 1.5", "unit": "h"}, {"measurement": "CLint scaled at 200 µM", "setting": "[8]; [9]", "value": 52.4, "unit": "mL/min/kg"}]}]}
